Values of other authors in patent publication US20150024042A1 (POZEN INC., priority 2011, published 2015).

Experiments:
[1] = 95% CI 0.84 to 0.98
[2] = repeated oral doses of 75 mg clopidogrel (base)
[3] = in vivo

time of peak plasma levels of the main circulating metabolite after dosing [2]: approximately one
Compound: COC(=O)[C@H](c1ccccc1Cl)N1CCc2sccc2C1 [clopidogrel]
cardiovascular events compared with aspirin, OR [1]: 0.91 | gastrointestinal hemorrhage, incidence [3]: 2.0 % annually
